Structures are written as SMILES. Structures can show the parent of a compound that is named as a salt.

The target in this experiment is T1, MMP2 (gelatinase A) (Homo sapiens, UniProt P08253).
T1 construct: made in house; host or cells: baculovirus (pFAST BAC 1) in Tn insect cells, secreted
T1 sequence (P08253 110-660): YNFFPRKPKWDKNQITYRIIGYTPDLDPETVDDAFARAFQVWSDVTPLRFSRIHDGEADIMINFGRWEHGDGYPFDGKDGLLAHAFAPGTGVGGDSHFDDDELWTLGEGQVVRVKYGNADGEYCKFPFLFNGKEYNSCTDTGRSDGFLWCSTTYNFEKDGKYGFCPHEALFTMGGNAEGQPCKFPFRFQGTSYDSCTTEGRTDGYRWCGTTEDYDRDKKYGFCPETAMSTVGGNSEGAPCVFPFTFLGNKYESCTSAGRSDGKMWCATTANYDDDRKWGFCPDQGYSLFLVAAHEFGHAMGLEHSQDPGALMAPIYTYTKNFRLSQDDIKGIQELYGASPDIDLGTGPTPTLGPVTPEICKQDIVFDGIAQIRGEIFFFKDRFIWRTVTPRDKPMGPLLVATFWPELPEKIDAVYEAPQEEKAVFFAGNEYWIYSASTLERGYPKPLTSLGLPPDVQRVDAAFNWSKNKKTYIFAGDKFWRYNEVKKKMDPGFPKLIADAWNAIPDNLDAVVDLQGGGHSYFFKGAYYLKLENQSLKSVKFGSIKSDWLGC
Briefly: MMP2 (gelatinase A) fluorogenic substrate inhibition assay. The class given is biochemical. The note with it: mean ± SEM of three independent experiments. As for the experimental part:
The inhibitory activities of compounds of formula I on MT1-MMP, MMP1 (collagenase 1) and MMP2 (gelatinase A) can be determined as follows:
Stock solutions of substrate (MCA-Pro-Leu-Gly-Leu-Dpa-Ala-Arg-NH2 (SEQ ID NO: 1), C. G. Knight, et al, FEBS lett., 296, 263-266, (1992)), are prepared in 100% DMSO at a concentration 1.0 mM.
Stock solutions of inhibitors are prepared in 100% DMSO. The inhibitor is diluted into the assays from a solution in 100% DMSO, and controls substitute an equal volume of DMSO so that the final DMSO concentration from inhibitor and substrate dilutions in all assays is 6.0%. Assays are performed in assay buffer (150 mM NaCl, 10 mM CaCl2, 50 mM Tris-Cl pH7.5, 0.05% Brij-35) containing 6.0% DMSO once the substrate and inhibitor are diluted into it. The substrate concentration used in the assays is […]. The test is carried out at 37° C. The fluorescence changes are monitored using an excitation wavelength of 320 nm and an emission wavelength of […]. The reaction mixture is added in duplicate to appropriate wells of a 96 well microfluor plate. The reaction mixture is preincubated with the inhibitor for 30 min, the reaction is started by the addition of MMP enzyme and the fluorescence intensity is measured for 10 min. A time point that is on a linear part of the curve is chosen to determine the activity. […]

In turn, `CN(C)c1ccc(CN(CC(=O)NO)S(=O)(=O)c2ccc(OCC3CC3)cc2)cc1` [Example 2, 2-[(4-Cyclopropylmethoxy-benzenesulfonyl)-(4-dimethylamino-benzyl-amino]-N-hydroxy-acetamide HCl salt] had an IC50 of 3.29 ± 0.49 nM.

As usually defined, the IC50 is the concentration that gives 50% inhibition. High values mean weaker potency, low ones greater potency.

The record behind these values is patent US7659293B2, “α-Amino-N-hydroxy-acetamide derivatives” (Novartis AG, priority 2001, dated 2010).
